Measurements from patent US20240067603A1, “CUBANYL BIGUANIDE COMPOUNDS” (REGENTS OF THE UNIVERSITY OF MINNESOTA, priority 2020, published 2024).
Like-named read-outs stand apart in the source and are kept apart here.

Key:
MCF-7 cells = experiment: MTT cell proliferation assay, MCF-7; assay type: cell-based, human; settings: MCF7
Experimental: FIG. 8. Effects of HCB on the proliferation of MCF-7 cells. MCF-7 cells were seeded in 96 well plates and treated with drugs at varied concentration for 24 hours. MTT assay was performed to determine remaining viable cells in each well. Results are represented as mean±S.D. (n=7). IC50 was determined by curve fitting.
(§1) 3-(4,5-Dimethylthiazol-2-yl)-2,5-diphenyltetrazolium Bromide (MTT) Cell Proliferation Assay. To cells grown in 96-well-tissue culture plate, 20 μl/well of MTT solution (5 mg/ml in PBS) was added. After 1-2 hours incubation at 37° C., the plate was centrifuged. Supernatant was discarded and 100 μl DMSO was added to dissolve water insoluble formazan, and the absorbance was read at 540 nm with a plate reader.

mm001 = experiment: Inhibition of mammary carcinoma cell line mm001; assay type: cell-based, mouse (C57BL/6); settings: Mus musculus, read-out: IC50 (uM), mm001
Experimental: as §1

mm006 = experiment: Inhibition of mammary carcinoma cell line mm006; assay type: cell-based, mouse (C57BL/6); settings: Mus musculus, read-out: IC50 (uM), mm006
Experimental: as §1

MDA-MB-231 = experiment: Inhibition of mammary carcinoma cell line MDA-MB-231; assay type: cell-based; settings: Table 5; MDA-MB-231, human, Basal, HER2−
Experimental: as §1

SARS-CoV-2 [1] = experiment: SARS-CoV-2 antiviral assay in Vero cells; assay type: cell-based; settings: Severe acute respiratory syndrome coronavirus 2, Vero cells, FIG. 11; for IC50: read-out: antiviral IC50; for IC90: read-out: antiviral IC90
SARS-CoV-2 [2] = experiment: microbe, parasite or virus in culture; assay type: cell-based; settings: Severe acute respiratory syndrome coronavirus 2, 293T/ACE2, FIG. 12; for IC50: read-out: antiviral IC50; for IC90: read-out: antiviral IC90
[3] = Pharmacokinetics in mice plasma (LC-MS/MS); assay type: in vivo; settings: for AUC, subcutaneous vs IV, intraperitoneal or oral: FIGS. 14-15; for HL_Lambda_z: mice plasma; for Cmax / Tmax: mouse, plasma
Experimental: HBB PK method: HBB in mice plasma was determined with an LC-MS/MS method using d5-HBB as the internal standard.
Sample preparation: HBB in 150 μL mice plasma was extracted by addition of 300 μL acetonitrile spiked with d5-HBB internal standard (0.5 ug/ml). The extraction mixture was centrifuged at 12,000×g for 5 minutes and 150 μL of supernatant was saved for LC-MS/MS analysis.
(§2) LC-MS/MS method: A Quattro Ultima mass spectrometer (Waters, Milford, MA) equipped with an Acquity UPLC (Waters, Milford, MA) and interfaced through an MassLynx software (Waters, Milford, MA) was used. HBB and d5-HBB were resolved at base line with a Zorbax Eclipse XDG-C18 column (4.6×50 mm, 1.8 micron) (Agilent, Santa Clara, CA). Mobile phases were A: water (0.1% formic acid) and B: acetonitrile (0.1% formic acid). The flow rate was 250 μL/min. Elution gradient was as follow: 0-5 min, 90% A and 10% B; 5 min, 10% A and 90% B; 5.25 min, 90% A and 10% B; 10 min, 90% A and 10% B. At positive mode, ion transition for HBB 276.01 mz to 91.02 mz and d5-HBB 281.09 to 96.06 were monitored.
Quantification: Quantitation was carried out by the MassLynx software based on an HBB standard curve (1.5-1500 ng/ml). Per FDA bioanalytical method validation guideline, standards and plasma samples were bracketed with QC samples to ensure accuracy and precision of the measurement.
HCB PK method: HCB in mouse plasma was determined with an LC-MS/MS method using d5-HBB as the internal standard.
Sample preparation: HCB in 150 μL mice plasma was extracted by addition of 300 μL acetonitrile spiked with d5-HBB internal standard (0.5 ug/ml). The extraction mixture was centrifuged at 12,000×g for 5 minutes and 150 μL of supernatant was saved for LC-MS/MS analysis.
as §2, with “used. Neo biguanide” for “used. HBB”, “Eclipse XDB-C18 Rapid Resolution HT (P.M. 927975-902)” for “Eclipse XDG-C18”, “for” for “for HBB 276.01 mz to 91.02 mz and”, “96.06 and corresponding neo biguanide parent daughter ion transition” for “96.06”
Quantification: Quantitation was carried out by the MassLynx software based on an HCB standard curve (1.5-1500 ng/ml). Per FDA bioanalytical method validation guideline, standards and plasma samples were bracketed with QC samples to ensure accuracy and precision of the measurement.

[4] = Microsomal stability, human liver microsomes; assay type: in vitro ADME; settings: for parent metabolite peak area after 60 min: 10 μM, human liver microsomes 1 mg/mL, NADPH 2 mM, 37° C.; for degradation pathways: human or mouse liver microsomes
Experimental: (§3) Microsomal stability of HBB and HCB were evaluated in human and mouse liver microsomes. 10 μM of HBB or HCB was tested in a biological matrix comprising of human or mouse liver microsomes (1 mg/mL) (Table 6). NADPH (2mM) was added as a cofactor. Total volume was 200 μL.
(§4) HBB or HCB was incubated for 0, 30, or 60 min at 37° C. Incubations were quenched with 2 volumes of acetonitrile followed by centrifugation for 10 min at 16,000 g.

[5] = Microsomal stability, mouse liver microsomes; assay type: in vitro ADME; settings: 10 μM, mouse liver microsomes 1 mg/mL, NADPH 2 mM, 37° C.
Experimental: as §3, §4

in vitro = settings: African green monkey, Vero E6 cells
[6] = Cytotoxicity assay in 293T/ACE2 cells; settings: human, HEK293T/17 cells expressing human ACE2
[7] = tested on: 293T human embryonic kidney cells over-expressing the ACE2 receptor; experiment: Cytotoxicity assay in 293T/ACE2 cells; settings: 293T/ACE2 cytotoxicity
[8] = Table 5, MCF-7, human, ERα+, HER2−, read-out: IC50 (uM), MCF-7

Row | Structure (SMILES) | IC50 (MCF-7 cells; [8]) [µM] | IC50 (MDA-MB-231) [µM] | IC50 (SARS-CoV-2 [1]) [µM] | IC90 (SARS-CoV-2 [1]) [µM] | IC50 (SARS-CoV-2 [2]) [µM] | IC90 (SARS-CoV-2 [2]) [µM] | AUC, subcutaneous vs IV, intraperitoneal or oral [3] | parent metabolite peak area after 60 min [4] [%] | degradation pathways [4] | parent metabolite peak area after 60 min [5] [%] | CC50 at 48 h (in vitro) [µM] | CC50 [6] [µM] | CC10 [7] [µM] | further results
1 | CCCCCCNC(=N)NC(=N)NCc1ccccc1 [HBB, N1-hexyl-N5-benzyl-biguanide] | 22.2 | 18.5 | > 20 | > 20 | 0.82 | 11.3 | better AUC | 19.19 | oxidation, dehydrogenation, and glucuronidation | 8.95 | > 20 | 26 | 1.5 | IC50 (mm001): 26.8 µM; IC50 (mm006): 38.5 µM; Cl_F_obs ([3]; IP): 88.25 mL/min/kg; Vz_F_obs ([3]; IP): 62.842 L/kg; HL_Lambda_z ([3]; IP): 8.23 h; Cl_obs ([3]; IV): 50.65 mL/min/kg; Vz_obs ([3]; IV): 32.933 L/kg; HL_Lambda_z ([3]; IV): 7.51 h; Cl_F_obs ([3]; SC): 32.89 mL/min/kg; Vz_F_obs ([3]; SC): 23.131 L/kg; fold greater AUC, subcutaneous than ip ([3]; SC vs ip): 2.6 fold; HL_Lambda_z ([3]; SC): 8.13 h; Cmax ([3]; ip): 1840 ng/mL; Tmax ([3]; ip): 1 min; Cmax ([3]; iv): 20100 ng/mL; Tmax ([3]; iv): 1 min; Cmax ([3]; sc): 1860 ng/mL; Tmax ([3]; sc): 5 min
2 | CCCCCCNC(=N)NC(=N)NCC12C3C4C5C3C1C5C42 (centres unmarked) [HCB, Hexyl Cubanomethyl Biguanide] | 8.4 | 15.4 | 15.6 | 19.6 | 0.7 | 4.8 | better AUC | 48.18 | oxidation, dehydrogenation, and hydrogenation | 18.63 | 13.3 | 7.2 | 1.04 | IC50 (MCF-7 cells; Homo sapiens, MTT, 24 hours treatment, curve fitting, read-out: IC50, proliferation of MCF-7 cells): 8.4 ± 1.2 µM; IC50 (mm001; Table 5, mm001, C57BL/6, Basal): 12.1 µM; IC50 (mm006; Table 5, mm006, C57BL/6, Basal): 16.9 µM
